Results on four molecules are retold here after US4853221A, “Method for treating non-small cell lung cancer, head and neck cancers and breast cancer” (Warner-Lambert Company, priority 1987, dated 1989).

The subject of assay [1] is Advanced Stage P388 Leukemia. The assay is classed as in vivo, mouse. As to conditions: Test 2. Here is the method:
(§1) Several studies were carried out to determine the potential for therapeutic synergy of trimetrexate with several clinically active anticancer agents. […] (See, for example, Vendetti, "Relevance of Transplantable Animal-Tumor Systems to the Selection of New Agents for Clinical Trial," Pharmacological Basis of Cancer Chemotherapy. Williams and Wilkins, Baltimore, 1975, and Simpson Herren, et al., "Evaluation of In Vivo Tumor Models for Predicting Clinical Activity for Anticancer Drugs," Proc. Am. Assoc. Cancer Res., 26: 330 (1985).
(§2) Differences in cell kill of greater than ten-fold (one log) were considered indicative of therapeutic synergy.
(§3) CD2F1 mice were quarantined for at least two weeks prior to allocation to test groups. P388 leukemia was passaged in DBA2 mice according to standard protocols of the National Cancer Institute. On Day 0 of a given test, all mice in the test were randomized, injected intraperitoneally with suitably diluted ascites fluid from P388 tumor-bearing donor mice and rerandomized to test cages.
The initial inoculum for all but titration groups was 10^6 cells as determined by hemocytometer count. […]
(§4) Group average weights were determined for all groups on Days 1, 5, and 9 for "early stage" P388 tests and on Days 4, 8, and 12 for "advanced stage" P388 tests. Animals were monitored for life span. […]

Assay [2] concerns Early Stage P388 Leukemia. Description: Combination chemotherapy, therapeutic synergy against early stage P388 leukemia. The assay is classed as in vivo, mouse. Here is the method:
as §1, §2, §3
The initial inoculum for all but titration groups was 10^6 cells as determined by hemocytometer count. Each experiment contained an internal control and tumor titration which enabled the determination of the tumor doubling time and estimates of the log cell kill and number of tumor cells surviving treatment.
Drug treatment was begun either on Day 1 or on Day 4 depending upon the relative activity of the agents being tested.
All of the drugs were injected within one hour of dissolution, with the exception of trimetrexate which was made up fresh twice daily. All mice were treated on the basis of average cage-group weight.
In drug combination regimens, trimetrexate was given approximately 30 minutes before the other therapeutic agents when the route of administration of the other agent was ip. […]
as §4

Assay [3] relates to L1210 cells. Description: Inhibition of L1210 cell growth in vitro. As to conditions: Mus musculus, L1210, 48 h, read-out: ED50 for L1210 Cells. It counts as cell-based, murine. Here is the method: Two leukemia cell lines (L1210 and L5178Y) and two solid tumor cell lines (Sarcoma 180 and Walker 256) were used in these studies.
(§5) Logarithmically growing L1210 cells (approximately 3×10^5 cells/ml) were diluted with Fischer's medium (containing 10% horse serum) to an approximate concentration of 5×10^4 cells/ml. Cells were planted in duplicate into 15 ml culture tubes containing either no drug or various amounts of drug, and incubated for 48 hours at 37° C. before being counted.
*ED50 = the concentration of drug required to reduce the cell count
to 50%, determined by plotting the cell count versus drug concentration.

Assay [4] concerns AML K-562. Kind of assay: Inhibition of AML K-562 cell growth in vitro. The assay is classed as cell-based, human. As to conditions: Homo sapiens, K562, 48 h, read-out: ED50. Here is the method:
as §5
(§6) Trimetrexate was also evaluated in a similar manner side-by-side with methotrexate for its effect on the growth of three additional murine cell lines (L5178Y, Sarcoma-180, and Walkler-256) and three human cell lines (acute myelogenous leukemia K-562, T-cell 8402, and B-cell 8392), propagated in vitro.

In assay [5] the test system is T-Cell 8402. Description: Inhibition of T-Cell 8402 growth in vitro. It counts as cell-based, human. As to conditions: Homo sapiens, T-cell, 48 h, read-out: ED50. Here is the method:
as §5, §6

For assay [6], the system named is B-Cell 8392. Kind of assay: Inhibition of B-Cell 8392 growth in vitro. It counts as cell-based, human. As to conditions: Homo sapiens, B-cell, 48 h, read-out: ED50. Here is the method: as §5, §6
Assay [7] has as its system Breast tumor. Kind of assay: Human tumor cloning system, breast tumors. It counts as cell-based. As to conditions: methotrexate 0.3 μg/ml, one hour; 10 specimens. From the text: (§7) The activity of trimetrexate was compared with that of methotrexate in tests with a human tumor cloning system (Latham, et al., Proc. Am. Assoc. Cancer Res., 24: 278 (1983)). The data from these tests appear in Table III were the activities are expressed as the numbers of tumors with 50% or greater reduction in tumor colony forming units after one hour exposure to the drug.

For assay [8], the system named is Colon tumor. Description: Human tumor cloning system, colon tumors. It counts as cell-based. As to conditions: methotrexate 0.3 μg/ml, one hour; 9 specimens.
Description: as §7

The test system of assay [9] is Lung tumor. Kind of assay: Human tumor cloning system, lung tumors. It counts as cell-based. As to conditions: methotrexate 0.3 μg/ml, one hour; 8 specimens.
Description: as §7

Assay [10] deals with Melanoma. Description: Human tumor cloning system, melanoma. The assay is classed as cell-based. As to conditions: methotrexate 0.3 μg/ml, one hour; 5 specimens.
Description: as §7

The test system of assay [11] is Ovarian tumor. Kind of assay: Human tumor cloning system, ovarian tumors. It counts as cell-based. As to conditions: methotrexate 0.3 μg/ml, one hour; 6 specimens.
Description: as §7

Assay [12] concerns Renal tumor. Kind of assay: Human tumor cloning system, renal tumors. It counts as cell-based. As to conditions: methotrexate 0.3 μg/ml, one hour; 6 specimens.
Description: as §7

Assay [13] relates to Miscell. tumors. Description: Human tumor cloning system, miscellaneous tumors. As to conditions: methotrexate 0.3 μg/ml, one hour; 10 specimens. It counts as cell-based.
Description: as §7

The test system of assay [14] is human tumor cultures. Description: Human tumor cloning system, all tumors. It counts as cell-based.
Description: as §7

As to `N.N.[Cl][Pt][Cl]` [Cisplatin, cis-Diamminedichloroplatinum (II)], the “single agent activity” value in assay [1] is reported as “considerably less active as a single agent”.

Turning to `CC[C@]1(O)C[C@H]2CN(CCc3c([nH]c4ccccc34)[C@@](C(=O)OC)(c3cc4c(cc3OC)N(C=O)[C@H]3[C@@](O)(C(=O)OC)[C@H](OC(C)=O)[C@]5(CC)C=CCN6CC[C@]43[C@@H]65)C2)C1` [Vincristine, 22-Oxo-vincaleukoblastine], the “single agent activity” value in assay [2] (Test 2) was “the more active of the single agents”.

For the molecule `CN(Cc1cnc2nc(N)nc(N)c2n1)c1ccc(C(=O)N[C@@H](CCC(=O)O)C(=O)O)cc1` [Methotrexate, N-[4-[[(2,4-diamino-6-pteridinyl)methyl]methylamino]benzoyl]-L-glutamic acid, reference compound], the IC50 in assay [3] was 8 nM; in assay [4] it was 50 nM; in assay [5], 25 nM; in assay [6], 25 nM. Moreover, the “Number of Tumors with 50% or Greater Decrease in Tumor Colony Forming Units” value in assay [7] is 1; in assay [8] it was 2; in [9], 1; in assay [10], 1; in assay [11], 0; in assay [12], 1. Also, the “Number of Tumors with 50% or Greater Decrease in Tumor Colony Forming Units” value in [13] amounted to 1; in assay [14] (Totals, methotrexate 0.3 μg/ml, one hour, 54 specimens), 7. The “human tumor cultures sensitive to methotrexate and resistant to trimetrexate” value in assay [14] (4/54) worked out at 7%.

`COc1cccc2c1C(=O)c1c(O)c3c(c(O)c1C2=O)C[C@@](O)(C(=O)CO)C[C@@H]3O[C@H]1C[C@H](N)[C@H](O)[C@H](C)O1` [Doxorubicin, (8S,10S)-10-[(3-Amino-2,3,6-trideoxy-α-L-lyxo-hexopyranosyl)oxy]-8-glycoloyl-7,8,9,10-tetrahydro-6,8,11-trihydroxy-1-methoxy-5,12-naphthacenedione]: the “single agent activity” value in assay [2] (Test 1) was “somewhat less active than expected”.
